# Test results: paper PMC8880385 (Pharmaceuticals, 2022)
# Tested on: Brugia pahangi
# Experiment: Brugia pahangi/gerbil model of infection: worm and peritoneal mf counts at necropsy
# Format: in vivo
# Details: gerbil, 1 mg/kg IP once a day for 5 days, necropsy 13 weeks post-first dose; mean (SEM)
# Experimental: Male Mongolian gerbils 50–60 g, 5–7 weeks in age (Meriones unguiculatus, Charles River Laboratories International, Inc., Wilmington, MA, USA) were injected intraperitoneally (IP) with 200 third-larval stage B. pahangi and treated a minimum of 3 months later when larvae developed into adult worms.
# Animals were given IP doses of 1 mg/kg once a day for 5 days based on in vivo studies by Jones et al., 2009 [14] and gerbil PK analyses. Compounds are light sensitive and were shielded from light during formulation. Animals were necropsied 13 weeks post-first dose, and peritoneal cavities were washed with 100 mL of PBS to collect adult worms and mf that had been released from female worms. Adult worms were separated by sex, counted, and processed for subsequent analyses. Mf from the peritoneal cavities were quantified by mixing peritoneal wash 9:1 (v/v) with 0.04% methylene blue:water and counted using an inverted microscope.
# Worm burden, peritoneal mf counts, overnight mf sheds and qPCR data were analyzed using a Kruskal–Wallis test followed by Dunn’s multiple comparison. To determine significant differences in embryograms, a two-way ANOVA was conducted with a Dunnett’s multiple comparisons test, and significance levels were determined based on comparisons with vehicle treated animals. All statistical analyses were determined using Prism 8 version 8.2.0(272).
compound,measurement,value
"Cc1ccc2c(ccc(/C=C/c3c(C)nn(-c4ccccc4)c3C)[n+]2C)c1.[I-] [Analog 06, 2-[(E)-2-(3,5-dimethyl-1-phenyl-1H-pyrazol-4-yl)ethenyl]-1,6-dimethylquinolin-1-ium iodide]",Adult worms per animal,31.3 (11.8)
same,Female worms per animal,15.9 (5.7)
same,Male worms per animal,15.4 (6.1)
same,Mf per animal (peritoneal cavity),"915,000 (263,235)"
